According to ChEMBL document CHEMBL2311259, “Synthesis of novel chromene derivatives of expected antitumor activity” (Eur J Med Chem, 2013):

Test system: MCF7
Test: Ratio of colchicine IC50 to compound IC50 for human MCF7 cells by SRB assay
Assay type: functional

COc1ccc2c(c1)Oc1ncn(N)c(=N)c1C2c1ccc(Cl)cc1 (mixture of isomers)
Ratio IC50: 1.5

CCOC(=O)c1nc2c3c(ncn2n1)Oc1cc(OCC)ccc1C3c1ccc(Cl)cc1 (racemic)
Ratio IC50: 2

CCOc1ccc2c(c1)Oc1ncn3nc(-c4ccc(OC)cc4)nc3c1C2c1ccc(Cl)cc1 (racemic)
Ratio IC50: 1.5

COc1ccc2c(c1)Oc1ncn(C)c(=N)c1C2c1ccc(Cl)cc1 (racemic)
Ratio IC50: 2

COc1ccc(-c2nc3c4c(ncn3n2)Oc2cc(OC)ccc2C4c2ccc(Cl)cc2)cc1 (racemic)
Ratio IC50: 1.5
